{"source": "patent US11324798B2", "about": "“Materials and methods for treatment of inflammation” (CYTOGEL PHARMA, LLC, priority 2010, dated 2022)", "tested_on": "mustard oil-induced acute neurogenic inflammation in the mouse ear", "assay": "Filtered and non-filtered CYT-1010 on 5% mustard oil-induced acute neurogenic ear swelling in mice (Example 4)", "assay_type": "in vivo", "procedure": "Stock solution of the 100 μg/ml concentration of CYT-1010 (5.5 ml) was prepared fresh every experimental day with 20% hydroxypropyl-βcyclodextrin (HPCD) dissolved in sterile distilled water, shaken properly and sonicated. The vehicle was 20% HPCD dissolved in sterile distilled water. Further dilutions of the compound for the smaller administered doses were made with this vehicle. The applied concentrations were filtered through a 0.2 μm sterile teflon filter. […] The lower concentrations looked clear immediately. Non-filtered solutions were administered in the same concentrations in the parallel groups for comparison. Three doses of both the filtered and non-filtered CYT-1010 solutions (1, 10 and 100 μg/kg; 0.1 ml/10 g from the 0.1, 1 and 10 μg/ml solutions) were administered i.v. 5 min before the induction of the inflammation. Animals of the control group were treated with the same volume of the HPCD after or without the same filtration procedure.\nMice were anaesthesized with urethane (1.2 g/kg i.p.) to achieve a long-lasting deep anaesthesia and minimize respiratory depression. Ten μl of 5% mustard oil dissolved in paraffin oil was smeared on both sides of both ears. Mustard oil in this concentration selectively activates Transient Receptor Potential A1 (TRPA1) on capsaicin-sensitive peptidergic sensory nerves and induces the release of sensory neuropeptides (Banvolgyi et al., 2004). The released calcitonin gene-related peptide (CGRP) and tachykinins such as substance P (SP) in the innervated area evoke vasodilatation and plasma protein extravasation collectively called acute neurogenic inflammation (Helyes et al., 1997, 2001, 2006; Borzsei et a., 2008).\nCYT-1010 (1, 10 and 100 μg/kg; 0.1 ml/10 g from the 0.1, 1, 10 μg/ml solutions) was administered i.v. 5 min before the induction of the inflammation by mustard oil smearing. Mice in the control group were treated with the same volume of the vehicle, 20% HPCD dissolved in sterile distilled water\nThere were 8 mice in each experimental group, and 9 in the 1 μg/kg filtered CYT-1010 dose group […].\n65 male CD1 mice (25-35 g) were divided into 8 experimental groups: Group 1: non-filtered vehicle-treated controls (n=8); Group 2: non-filtered 1 μg/kg CYT-1010 (n=8); Group 3: non-filtered 10 μg/kg CYT-1010 (n=8); Group 4: non-filtered 100 μg/kg CYT-1010 (n=8); Group 5: filtered vehicle-treated controls (n=8); Group 6: filtered 1 μg/kg CYT-1010 (n=9); Group 7: filtered 10 μg/kg CYT-1010 (n=8); and Group 8: filtered 100 μg/kg CYT-1010 (n=8).\nThis study was undertaken in blocks with 16-17 mice per occasion. The whole set of data was obtained during 4 days (12, 13, 16, 22 Apr. 2010). There were 2 or 3 solvent-treated rats every day and the remaining 12 animals were randomised to receive each treatment.\nThe diameter of the ear was measured with an engineers' micrometer before the treatment and 4 times during the 3 h-examination period (20 min, 1 h, 2 h and 3 h). Edema was expressed in % compared to the initial control values (Banvolgyi et al., 2004; Borzsei et al., 2008). The compound was administered i.v. 5 min before mustard oil smearing in 3 doses (1, 10, 100 μg/kg) in separate groups after sterile filtration or without filtration. Animals of the control group were treated with the same volume of the vehicle\nResults are expressed as the mean±s.e.m. Statistical significance was performed with one-way ANOVA followed by Dunnett's post-hoc test (modified t-test) when the data of the CYT-1010-treated groups were compared to the respective vehicle-treated controls at certain time points. The areas under the time-dependent percentage ear swelling curves (AUC) were also calculated and analyzed with the same statistics to compare the whole edema responses of the CYT-1010-treated mice during the 3 h-experimental period to the respective control group. *p<0.05 was considered to be significant. […]", "note": "“Also recorded” adds a separate entry of the source.", "data": [{"smiles": "NC(Cc1ccc(O)cc1)C(=O)NC1CCCCNC(=O)C(Cc2ccccc2)NC(=O)C(Cc2c[nH]c3ccccc23)NC1=O", "note": "[CYT-1010, H-Tyr-c-[D-Lys-Trp-Phe]]", "values": [{"measurement": "Effect of filtration on the inhibitory action of CYT-1010", "setting": "0.2 μm sterile filter, filtered vs non-filtered", "value": "moderately decreases"}, {"measurement": "AUC of time course of percentage ear swelling", "setting": "filtered (0.2 μm), 1 μg/kg i.v., control 50.04±6.96, NS", "value": "51.47±6.93", "unit": "units"}, {"measurement": "AUC of time course of percentage ear swelling", "setting": "filtered (0.2 μm), 10 μg/kg i.v., control 50.04±6.96, NS", "value": "33.68±3.79", "unit": "units"}, {"measurement": "AUC of time course of percentage ear swelling", "setting": "filtered (0.2 μm), 100 μg/kg i.v., control 50.04±6.96, NS", "value": "33.97±5.62", "unit": "units"}, {"measurement": "Effect on mustard oil-induced ear swelling", "setting": "filtered, 1 μg/kg i.v.", "value": "did not influence ear swelling; also recorded: did not have any effect"}, {"measurement": "Effect on mustard oil-induced ear swelling", "setting": "filtered, 10 μg/kg and 100 μg/kg i.v., 20 min", "value": "inhibited significantly"}, {"measurement": "Effect on mustard oil-induced ear swelling", "setting": "filtered, two higher doses (10 and 100 μg/kg i.v.)", "value": "moderate inhibition"}, {"measurement": "Effect on mustard oil-induced ear swelling", "setting": "non-filtered, 1 μg/kg i.v.", "value": "did not significantly diminish ear swelling"}, {"measurement": "AUC of time course of percentage ear swelling", "setting": "non-filtered, 1 μg/kg i.v., control 44.02±6.97, NS", "value": "40.33±5.32", "unit": "units"}, {"measurement": "Extent of the inhibition of ear swelling", "setting": "non-filtered, 10 μg/kg and 100 μg/kg i.v., both cases", "value": "about 50%"}, {"measurement": "Effect on mustard oil-induced ear swelling", "setting": "non-filtered, 10 μg/kg and 100 μg/kg i.v., from 20 min until the 2 hour time point", "value": "significantly inhibited; also recorded: significantly reduced"}, {"measurement": "AUC of time course of percentage ear swelling", "setting": "non-filtered, 10 μg/kg i.v., control 44.02±6.97, P<0.05", "value": "24.21±2.75", "unit": "units"}, {"measurement": "AUC of time course of percentage ear swelling", "setting": "non-filtered, 100 μg/kg i.v., control 44.02±6.97, P<0.01", "value": "21.71±1.72", "unit": "units"}]}]}
